In ChEMBL document CHEMBL1201862, “PubChem BioAssay data set” (2004):
Each block holds one compound with its values, some of them ahead of it. The source made the active and inactive calls.

Legend:
[1] = cAMP pathway inhibition in counterscreen cell line – TR-FRET cAMP detection, counter-screen for MC4R biased antagonist project, dose response (AID 602305); format: functional, cell-based;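 also: U2OS cells stimulated with forskolin near its EC80 as the cAMP inducer; potency is for inhibition of forskolin-stimulated cAMP signaling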
Melanocortin receptor 4 [2] = biological target: T1, Melanocortin receptor 4 (Homo sapiens, UniProt P32245); experiment: inhibitors of MC4R cAMP signaling – cell-based, TR-FRET, biased antagonists, dose response (AID 602298); format: functional;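 also: antagonist potency against agonist-stimulated cAMP production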
Melanocortin receptor 4 [3] = biological target: T1, Melanocortin receptor 4; format: functional, cell-based
[4] = biological target: Heat shock protein HSP 90-alpha (Homo sapiens, UniProt P07900); format: functional, organism-based
[5] = biological target: T2, DNA repair protein RAD52 homolog (Homo sapiens, UniProt P43351); format: functional, biochemical
T2 sequence (P43351 whole entry): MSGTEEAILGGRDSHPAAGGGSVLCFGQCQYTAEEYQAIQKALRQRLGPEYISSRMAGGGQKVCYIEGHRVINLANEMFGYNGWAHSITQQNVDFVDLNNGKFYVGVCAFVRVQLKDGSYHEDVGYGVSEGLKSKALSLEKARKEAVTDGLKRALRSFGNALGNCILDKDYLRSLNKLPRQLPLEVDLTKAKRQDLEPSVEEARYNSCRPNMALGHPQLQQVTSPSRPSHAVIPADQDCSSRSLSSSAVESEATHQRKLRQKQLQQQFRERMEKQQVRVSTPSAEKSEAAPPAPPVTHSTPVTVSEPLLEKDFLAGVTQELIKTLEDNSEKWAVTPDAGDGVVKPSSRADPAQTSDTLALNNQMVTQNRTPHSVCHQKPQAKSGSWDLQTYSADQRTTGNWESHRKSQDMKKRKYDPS

[6] = reduction of Shn3 3'UTR-driven luciferase in osteoblasts – cell-based, Clone20 osteoblasts, firefly luciferase, cherry-picked, dose response (AID 624132); format: functional;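 also: firefly luciferase luminescence from reporter carrying the Shn3 3'UTR in osteoblasts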
[7] = non-specific 3'UTR reporter inhibition in Clone20-Shn3RL – cell-based, Renilla luciferase, cherry-picked, counter-screen for Shn3 inhibitor project, dose response (AID 624133); format: functional
cells = format: functional, cell-based; settings: HEK-CNG
Galanin receptor type 3 = Galanin receptor type 3 (Homo sapiens, UniProt O60755); experiment: Fluorescence-based cell-based primary high throughput dose response assay to identify antagonists of the Galanin Receptor 3 (GalR3).; format: functional
[8] = loss of viability in HepG2 cells – cell-based, CellTiter-Glo, cherry-picked, cytotoxicity control for Shn3 inhibitor project, dose response (AID 624134); format: functional
[9] = biological target: T3, Mitochondrial peptide methionine sulfoxide reductase (Bos taurus, UniProt P54149); format: functional;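 also: absorbance read-out, biochemical high-throughput dose-response screen for MsrA inhibitors, confirmatory; recombinant bovine MsrA coupled to E. coli TrxB with NADPH and selenocystamine; potency is for inhibitors of MsrA activity on DMSO substrate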
T3 sequence (P54149 whole entry): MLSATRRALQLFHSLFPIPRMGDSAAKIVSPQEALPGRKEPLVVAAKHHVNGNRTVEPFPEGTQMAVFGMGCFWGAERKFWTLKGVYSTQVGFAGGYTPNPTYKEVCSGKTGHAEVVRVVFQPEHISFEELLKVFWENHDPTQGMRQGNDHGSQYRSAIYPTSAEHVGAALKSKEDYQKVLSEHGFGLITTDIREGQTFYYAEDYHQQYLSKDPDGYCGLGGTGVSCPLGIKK

[10] = biological target: T4, High affinity choline transporter 1 (Homo sapiens, UniProt Q9GZV3); experiment: human choline transporter blockers, potency – cell-based, 5-point CRC, membrane potential dye, dose response (AID 504840); format: functional
T4 sequence (Q9GZV3 whole entry): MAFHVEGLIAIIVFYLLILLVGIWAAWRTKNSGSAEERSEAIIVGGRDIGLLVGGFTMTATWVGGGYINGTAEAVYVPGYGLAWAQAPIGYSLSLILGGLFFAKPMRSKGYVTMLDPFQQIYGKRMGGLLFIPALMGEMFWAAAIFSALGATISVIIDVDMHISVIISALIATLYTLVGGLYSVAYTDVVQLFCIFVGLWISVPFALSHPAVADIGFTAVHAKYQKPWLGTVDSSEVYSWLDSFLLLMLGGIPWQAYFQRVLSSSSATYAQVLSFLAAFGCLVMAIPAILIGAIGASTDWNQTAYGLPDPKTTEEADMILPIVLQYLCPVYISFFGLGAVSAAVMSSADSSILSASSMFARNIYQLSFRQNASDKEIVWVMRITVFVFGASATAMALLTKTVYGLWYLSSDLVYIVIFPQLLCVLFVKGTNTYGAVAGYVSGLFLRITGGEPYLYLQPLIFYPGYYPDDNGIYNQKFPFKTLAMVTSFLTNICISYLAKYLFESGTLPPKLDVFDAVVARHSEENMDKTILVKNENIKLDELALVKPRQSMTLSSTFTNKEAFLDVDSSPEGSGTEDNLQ

[11] = biological target: T4, High affinity choline transporter 1; experiment: human choline transporter blockers, potency – cell-based, 10-point CRC, membrane potential dye, dose response (AID 588401); format: functional;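 also: membrane potential dye fluorescence of choline-evoked depolarization via CHT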
[12] = HIV-1 AD8 envelope cell-cell fusion blockers – cherry-pick, dose response (AID 652062); format: functional, cell-based;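 also: luciferase signal from cell-cell fusion driven by HIV-1 clade B AD8 Env; potency is for inhibitors of fusion seen as a drop in luminescence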

T1 sequence (P32245 whole entry): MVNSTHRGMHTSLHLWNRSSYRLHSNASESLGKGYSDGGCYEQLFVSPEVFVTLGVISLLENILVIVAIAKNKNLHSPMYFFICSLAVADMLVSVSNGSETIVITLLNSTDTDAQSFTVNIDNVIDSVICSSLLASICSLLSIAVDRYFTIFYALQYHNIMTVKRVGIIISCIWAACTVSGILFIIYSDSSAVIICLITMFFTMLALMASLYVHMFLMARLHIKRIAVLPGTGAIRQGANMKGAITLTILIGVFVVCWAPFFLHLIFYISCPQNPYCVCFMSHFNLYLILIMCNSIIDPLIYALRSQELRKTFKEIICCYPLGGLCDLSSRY
Sequence of Galanin receptor type 3 (O60755 whole entry): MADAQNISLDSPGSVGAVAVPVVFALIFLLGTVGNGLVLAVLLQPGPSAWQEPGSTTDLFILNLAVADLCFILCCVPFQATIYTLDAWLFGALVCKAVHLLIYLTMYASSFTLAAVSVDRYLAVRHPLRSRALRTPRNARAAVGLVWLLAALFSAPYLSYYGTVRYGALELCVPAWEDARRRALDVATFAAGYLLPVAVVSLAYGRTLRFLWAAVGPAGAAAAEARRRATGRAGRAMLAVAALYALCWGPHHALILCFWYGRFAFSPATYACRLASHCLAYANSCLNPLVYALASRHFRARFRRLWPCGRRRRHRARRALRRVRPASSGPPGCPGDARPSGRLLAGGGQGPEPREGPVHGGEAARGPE

Structure (SMILES): O=C(CSc1c2c(nc3cc(Cl)ccc13)CCCC2)NCCN1CCOCC1
IC50 [1]: > 64.6 µM (inactive)
IC50 (Melanocortin receptor 4 [2]): > 64.6 µM (inactive)

EC50 (Melanocortin receptor 4 [3]): > 89.2 µM (inactive)
AC50 [4]: 9.18 µM (active)
AC50 [5]: 5.29 µM (active)
Structure (SMILES): CCCCCCCCCCCCCCCC[n+]1cccc(C(=O)N(CC)CC)c1

Structure (SMILES): CC(=O)OC[C@]12CC[C@H]3[C@@](C)(CC[C@H]4C(C)(C)CCC[C@]34C)[C@@H]1CC(C1=CC(=O)OC1O)O2 (stereo partly specified)
AC50 [6]: 0.634 µM (active)
IC50 [1]: 55 µM (inactive)
AC50 [7]: 3.12 µM (active)
EC50 (cells): > 29.9 µM (inactive)
IC50 (Melanocortin receptor 4 [2]): 15.2 µM (inactive)
IC50 (Galanin receptor type 3): > 1.11 µM (active)
AC50 [8]: 8.6 µM (active)

IC50 [9]: 155 µM (inactive)
Structure (SMILES): Cc1cc(C(=O)N/N=C/C=C/c2ccc([N+](=O)[O-])cc2)[nH]n1

Structure (SMILES): Cc1cc(Cl)c(S(=O)(=O)N2CCCC2)cc1OCC(=O)NC1CCCCC1
IC50 [10]: 4.68 µM (active)
IC50 [11]: 4.47 µM (active)
AC50 [12]: 18.1 µM (active)
